Laboratory results taken from patent US20030199699A1, “3-(4,5-Dihydroisoxaxol-5-yl)benzoylcyclohexenones and the use thereof as herbicides” (priority 2000, published 2003).

Key:
hairy fingergrass = assay: greenhouse herbicidal test, pre-emergence; format: in vivo, Digitaria sanguinalis; settings: 125 or 62.5 g/ha
Excerpt: (§1) The culture containers used were plastic flower pots containing loamy sand with approximately 3.0% of humus as substrate. The seeds of the test plant were sown separately for each species.
(§2) For the pre-emergence treatment, the active ingredients, which were suspended or emulsified in water, were applied directly after sowing by means of finely distributing nozzles. The containers were irrigated gently to promote germination and growth and subsequently covered with transparent plastic hoods until the plants had rooted. This cover caused uniform germination of the test plants unless this was adversely affected by the active ingredients.
(§3) Depending on the species, the plants were kept at temperatures of from 10 to 25° C. or from 20 to 35° C. The test period extended over 2 to 4 weeks. During this time, the plants were tended, and their response to the individual treatments was evaluated.
(§4) Evaluation was carried out using a scale of from 0 to 100. 100 means no emergence of the plants, or complete destruction of at least the aerial parts, and 0 means no damage or normal course of growth.
(§5) The plants used in the greenhouse experiments belonged to the following species: […]

lambsquarters = assay: greenhouse herbicidal test, pre-emergence; format: in vivo, Chenopodium album; settings: 125 or 62.5 g/ha
Excerpt: as §1, §2, §3, §4, §5

black nightshade = assay: greenhouse herbicidal test, pre-emergence; format: in vivo, Solanum nigrum; settings: 125 or 62.5 g/ha
Excerpt: as §1, §2, §3, §4, §5

redroot pigweed = assay: greenhouse herbicidal test, pre-emergence; format: in vivo, Amaranthus retroflexus; settings: 125 or 62.5 g/ha
Excerpt: as §1, §2, §3, §4, §5

melting point: 135 to 140 °C
SMILES: CC1=NOC(c2c(S(C)(=O)=O)ccc(C(=O)C3=C(O)CCCC3=O)c2C)C1 (centres unmarked) [Compound 2.5, 2-[2-Methyl-3-(3-methyl-4,5-dihydroisoxazol-5-yl)-4-methylsulfonylbenzoyl]-1-hydroxycyclohex-1-en-3-one]
herbicidal action against hairy fingergrass (hairy fingergrass): highly efficiently
herbicidal action against lambsquarters (lambsquarters): highly efficiently
herbicidal action against black nightshade (black nightshade): highly efficiently
herbicidal action against redroot pigweed (redroot pigweed): highly efficiently
